Reference: patent US20250339569A1, “CARBONIC ANHYDRASE IX LIGANDS” (priority 2021, published 2025)
Where two headings read alike, the source gives them in different places. Starred links: 1 amine or outer side, 2 acyl side, 3 side chain; linkers in the order of their positions; H or OH if unused. Positions of bridges follow the written chain, without caps; N, C: chain ends. Non-standard residues stand in square brackets, D forms with d. Residues, ends and D or L forms follow the SMILES beside them. *: point of attachment. Phe(3-NHCO(CH2)3SO2NH2) = N[C@@H](Cc1cccc(NC(=O)CCCS(N)(=O)=O)c1)C(=O)O; DOTA = O=C(O)CN1CCN(CC(=O)O)CCN(CC(=O)*)CCN(CC(=O)O)CC1; mXylylene = c1cc(C[*:1])cc(C[*:2])c1; X2 = O=C(CN1CCC(N[*:1])CC1)[*:2]

Key:
[1] = target: T1, CAIX-expressing human HT-29 colorectal cancer cells (Homo sapiens, UniProt Q16790); assay: FACS binding assay (IC50 determination, competition with tracer 3BP-2776 or 3BP-4149)
T1 construct: CAIX-expressing human HT-29 colorectal cancer cells; host or cells: HT-29 human colorectal cancer cells
Method in brief: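 HT-29 cells in FACS buffer (PBS, 1% FCS) at 500.000 cells/ml were exposed to compounds competing with a labelled tracer, with biotinylated compounds detected by 1 μg/mL APC-streptavidin for 30 min on ice. APC/Cy5 median fluorescence was read by flow cytometry and IC50 derived by 4PL fit.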

[2] = target: T2, human carbonic anhydrase IX (hCAIX-Fc) (Homo sapiens, UniProt Q16790); assay: Surface plasmon resonance assay with hCAIX-Fc; format: binding; conditions: for t1/2 category (activity): SPR dissociation half-life, hCAIX-Fc; for t1/2 category (activity) / Kd: 25° C.; for Kd: hCAIX-Fc captured, read-out: pKD category (activity) (converted)
T2 construct: purchased SinoBliological (Sino Biological) 10107-H02H

[3] = mouse, plasma, 24 h
CAIV (hCAIV-bio) = target: T3, CAIV (hCAIV-bio) (Homo sapiens, UniProt P22748); assay: SPR selectivity assay with biotinylated CAIV; format: binding
T3 construct: purchased SinoBliological (Sino Biological) 10472-1H081H
Protocol: (§1) In order to test selectivity of CAIX-binding peptides toward CAIV (SinoBliological, Cat #10472-1H081H), CAXII (SinoBliological, Cat #10617-H08H or CAXIV (SinoBliological, Cat #10458-H08H), SPR assays were performed analog to the assay described above but with a different target capture procedure. For immobilization, the carbonic anhydrases were biotinylated and capture on the SPR chip using the Biotin CAPture Kit (cytiva) according to the manufacturer instructions using HBSTE, 0.1% as Running Buffer.
(§2) Table 13 describes the protocol steps for biotinylated target capturing and assessment of the binding kinetics.

CAXII (hCAXII-bio) = target: T4, CAXII (hCAXII-bio) (Homo sapiens, UniProt O43570); assay: SPR selectivity assay with biotinylated CAXII; format: binding
T4 construct: purchased SinoBliological (Sino Biological) 10617-H08H
Protocol: as §1, §2

CAXIV (hCAXIV-bio) = target: T5, CAXIV (hCAXIV-bio) (Homo sapiens, UniProt Q9ULX7); assay: SPR selectivity assay with biotinylated CAXIV; format: binding
T5 construct: purchased SinoBliological (Sino Biological) 10458-H08H
Protocol: as §1, §2

dog CAIX = assay: Radioligand binding assay, 111In-labeled compounds, CHO-VGT cells with dog CAIX; conditions: 111In-labeled compound, 8 h at 37°C
Protocol: (§3) In order to assess the affinity of ^111In-labeled compounds to CAIX of different species, a radioligand binding assay was established.
(§4) CHO-VGT cells were transfected with the human, dog, and mouse CAIX (InSCREENex GmbH) and cultured in Ham's F-12 medium (Sigma-Aldrich #N4888) supplemented with 10% fetal bovine serum (FCS), 2 mM L-glutamine, 100 U/mL Penicillin, and 0.1 mg/mL streptomycin. Cells were detached with Accutase (Biolegend #423201) and counted using a particle counter (CASY Model TT; Scharfe Systems, Germany). Cell concentrations were adjusted to 3×10^5 mL^−1, and 1.000 μL of the suspension per well were dispensed into flat-clear-bottom 24 well plates.
(§5) Approximately 24 hours after re-seeding, the medium was aspirated and the cells were washed once with 1000 μL assay medium (Ham's medium without additives). To determine total binding, 700 μL of assay medium and 100 μL of the radioligand dilutions were added to the wells in triplicates. To determine non-specific binding, 600 μL of binding medium, 100 μL of the radioligand dilutions and 100 μL of a blocking solution containing 8 μM non-labeled compound were added to the wells in triplicates. At the end of incubation time (8 h at 37° C.), cells were washed and subsequently harvested in 300 μL RIPA buffer (Thermo Scientific #89901) containing Protease Inhibitor Cocktail Set I (Calbiochem #539131). Radioactivity of the cell lysate of each well was counted using a gamma counter (1470 Wizard, PerkinElmer, USA). An aliquot of each radioligand dilution was included in the gamma counter measurements to allow for determination of their actual concentrations via their known specific activity.

mouse CAIX = target: T6, mouse CAIX (Mus musculus, UniProt Q8VHB5); assay: Radioligand binding assay, 111In-labeled compounds, CHO-VGT cells with mouse CAIX
T6 construct: host or cells: CHO-VGT / CHO cells
Protocol: as §3, §4, §5

human CAIX = human CAIX (Homo sapiens, UniProt Q16790); assay: Radioligand binding assay, 111In-labeled compounds, CHO-VGT cells with human CAIX; set-up: host or cells: CHO-VGT / CHO cells
Protocol: as §3, §4, §5

T4 sequence (O43570 25-354): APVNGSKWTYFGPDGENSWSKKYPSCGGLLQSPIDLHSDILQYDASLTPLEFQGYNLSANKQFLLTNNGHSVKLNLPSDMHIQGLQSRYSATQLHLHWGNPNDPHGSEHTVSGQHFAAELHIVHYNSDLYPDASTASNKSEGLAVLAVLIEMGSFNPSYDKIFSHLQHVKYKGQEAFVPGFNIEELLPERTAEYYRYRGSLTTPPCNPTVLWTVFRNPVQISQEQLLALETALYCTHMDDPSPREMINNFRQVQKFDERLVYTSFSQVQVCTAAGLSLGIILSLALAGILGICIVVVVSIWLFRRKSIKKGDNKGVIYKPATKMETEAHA
T3 sequence (P22748 19-284): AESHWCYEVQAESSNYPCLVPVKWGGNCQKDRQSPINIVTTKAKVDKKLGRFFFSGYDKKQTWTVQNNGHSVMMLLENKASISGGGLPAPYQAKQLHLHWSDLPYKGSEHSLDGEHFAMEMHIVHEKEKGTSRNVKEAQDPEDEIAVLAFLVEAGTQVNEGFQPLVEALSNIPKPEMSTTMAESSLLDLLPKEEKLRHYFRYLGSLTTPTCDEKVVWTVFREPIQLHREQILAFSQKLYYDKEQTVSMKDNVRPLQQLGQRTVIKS
T6 sequence (Q8VHB5 32-437): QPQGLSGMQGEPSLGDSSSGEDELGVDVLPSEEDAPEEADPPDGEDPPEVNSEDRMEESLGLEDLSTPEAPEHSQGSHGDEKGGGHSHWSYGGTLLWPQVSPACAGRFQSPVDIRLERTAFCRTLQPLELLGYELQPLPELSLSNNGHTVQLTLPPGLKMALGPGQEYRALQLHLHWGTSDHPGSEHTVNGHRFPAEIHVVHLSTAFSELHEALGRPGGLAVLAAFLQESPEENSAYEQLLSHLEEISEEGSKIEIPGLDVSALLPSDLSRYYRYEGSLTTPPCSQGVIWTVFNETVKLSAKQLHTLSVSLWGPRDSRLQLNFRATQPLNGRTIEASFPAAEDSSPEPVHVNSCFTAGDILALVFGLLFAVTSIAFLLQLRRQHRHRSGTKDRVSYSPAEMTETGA
T5 sequence (Q9ULX7 16-337): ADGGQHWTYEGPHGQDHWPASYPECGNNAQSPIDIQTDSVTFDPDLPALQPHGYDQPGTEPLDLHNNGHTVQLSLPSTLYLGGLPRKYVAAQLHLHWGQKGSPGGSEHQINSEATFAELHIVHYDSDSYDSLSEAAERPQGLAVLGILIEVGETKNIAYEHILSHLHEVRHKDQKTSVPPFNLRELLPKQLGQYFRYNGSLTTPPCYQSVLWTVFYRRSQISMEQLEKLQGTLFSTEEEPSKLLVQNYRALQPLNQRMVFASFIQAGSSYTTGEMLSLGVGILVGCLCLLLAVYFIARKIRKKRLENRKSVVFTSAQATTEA

Row | Compound | IC50 ([1]; FACS binding assay, HT-29 cells, competition with tracer 3BP-4149 (3 nM, Cy5-labeled), 4° C., 1 hour, read-out: pIC50 category (activity) (converted)) | t1/2 category (activity) [2] | Kd ([2]; SPR) | % intact compound remaining (incubation time) [3] | IC50 [1] | pKD category (affinity) CAIX ([2]; SPR, hCAIX) | Kd (CAIV (hCAIV-bio)) | Kd (CAXII (hCAXII-bio)) | Kd (CAXIV (hCAXIV-bio)) | pKD category (activity) (dog CAIX) | Kd (mouse CAIX) | Kd (human CAIX)
1 | CC(C)C[C@@H]1NC(=O)[C@H](Cc2cccc(NC(=O)CCCS(N)(=O)=O)c2)NC(=O)[C@H](CC(=O)O)NC(=O)[C@H]2CCCN2C(=O)[C@H](CCC(=O)O)NC(=O)[C@@H](NC(=O)[C@H](Cc2ccc(O)cc2)NC(=O)[C@@H](NC(=O)CN2CCC(NC(=O)CN3CCN(CC(=O)O)CCN(CC(=O)O)CCN(CC(=O)O)CC3)CC2)C(C)C)CSCc2cccc(c2)CSC[C@@H](C(N)=O)NC(=O)[C@H](CO)NC(=O)[C@H](Cc2c[nH]c3ccccc23)NC(=O)[C@H]([C@@H](C)O)NC1=O [3BP-4369] ({DOTA}-[X2]VYCE[dP]D[Phe(3-NHCO(CH2)3SO2NH2)]LTWSC-NH2; linker 4-13 via mXylylene) | < 10 nM | A (t1/2>15.0 minutes) | < 10 nM | >95% | – | – | – | – | – | – | – | –
2 | CC(C)C[C@@H]1NC(=O)[C@H](Cc2cccc(NC(=O)CCCS(N)(=O)=O)c2)NC(=O)[C@H](CC(=O)O)NC(=O)[C@H]2CCCN2C(=O)[C@H](CCC(=O)O)NC(=O)[C@@H](NC(=O)[C@H](CCC(N)=O)NC(=O)CN2CCN(C(=O)CN3CCN(CC(=O)O)CCN(CC(=O)O)CCN(CC(=O)O)CC3)CC2)CSCc2cccc(c2)CSC[C@@H](C(N)=O)NC(=O)[C@H](CO)NC(=O)[C@H](Cc2c[nH]c3ccccc23)NC(=O)[C@H]([C@@H](C)O)NC1=O [3BP-4452, DOTA-PPAc-Gln-[Cys(3MeBn)-Glu-pro-Asp-Af3(Cpsu)-Leu-Thr-Trp-Ser-Cys]-NH2] | – | A (t1/2>15.0 minutes) | < 10 nM | – | < 10 nM | A (pKD values >8.0) | > 1000 nM | > 1000 nM | > 1000 nM | A (pKD values >8.0) | 10 to 79.4 nM | < 10 nM
